For 20 compounds, AC50 results are on record in US9458132B2, “Therapeutic compounds and compositions and their use as PKM2 modulators” (AGIOS PHARMACEUTICALS, INC., priority 2012, dated 2016).

Where only a bound is given, the exact number is not on record here.

The target in one assay is PKR R510Q (Homo sapiens, UniProt P30613, R510Q). In words: PKR mutant assay, PKR R510Q AC50. In kind it is biochemical. Particulars: mutant PKR R510Q enzyme. Here is the method: (§1) • PKR or PKR mutant enzyme solution was diluted in assay buffer. • 2 μL of test compound was added into wells first, and then 180 μL reaction mix was added. • Reactions mixture with test compound was assembled except for ADP, and plates were stored for 60 minutes at room temperature. • 20 uL ADP was added to start reaction at room temperature and reaction progress was measured as changes in absorbance at 340 nm wavelength at room temperature.
Test Compound Preparation: • Test compound stock was made at 100x concentration in 100% DMSO (10 mM) • 1 to 3 dilutions were made for 11 points (i.e. 50 μl of first concentration added to 100 μl 100% DMSO to yield 3.33 mM, 50 μl of this added to 100 μl DMSO to yield 1.11 mM, and so forth) • 1 to 100 dilution into assay (2 μl in 200 μl) yielded starting concentration of 100 μM, decreasing 3 fold for 11 points • Assay Buffer: 100 mM KCl, 50 mM Tris 7.5, 5 mM MgCl2, 1 mM DTT, 0.03% BSA • Reaction Mixture: PKR mutant enzyme: 80-400 ng/well; ADP: 0.22-1.65 mM; PEP: 0.1-0.5 mM; NADH:180 uM; LDH: 0.5 units (Sigma#59023); DTT: 1 mM; BSA: 0.03%. […]

The target in a further assay is PKR R532W (Homo sapiens, UniProt P30613, R532W). In words: PKR mutant assay, PKR R532W AC50. In kind it is biochemical. The conditions noted are these: mutant PKR R532W enzyme. The method, then:
as §1
(§2) Test Compound Preparation: • Test compound stock was made at 100x concentration in 100% DMSO (10 mM) • 1 to 3 dilutions were made for 11 points (i.e. 50 μl of first concentration added to 100 μl 100% DMSO to yield 3.33 mM, 50 μl of this added to 100 μl DMSO to yield 1.11 mM, and so forth) • 1 to 100 dilution into assay (2 μl in 200 μl) yielded starting concentration of 100 μM, decreasing 3 fold for 11 points • Assay Buffer: 100 mM KCl, 50 mM Tris 7.5, 5 mM MgCl2, 1 mM DTT, 0.03% BSA • Reaction Mixture: PKR mutant enzyme: 80-400 ng/well; ADP: 0.22-1.65 mM; PEP: 0.1-0.5 mM; NADH:180 uM; LDH: 0.5 units (Sigma#59023); DTT: 1 mM; BSA: 0.03%.
(§3) A compound described herein was diluted with DMSO and tested at 1 μM concentration. The enzyme was diluted in 1× Buffer: (100 mM KCl, 50 mM Tris 7.5, 5 mM MgCl2, 1 mM DTT, 0.03% BSA). 2 μL of compound solution was first added into wells, and then 180 μL of enzyme solution was added. Assays were assembled except for ADP, and plates were stored for 60 minutes at RT. 20 μL ADP was added to start the assay and assay output was evaluated using OD340 at SpectraMax. The assay was run at room temperature. • Final concentration: PKR R532W (100 ng/well), Tris pH 7.5 (50 mM), KCl (100 mM), MgCl2 (5 mM), ADP (0.36 mM), PEP (0.1 mM), NADH (180 μM), LDH (0.5 units, Sigma 59023), DTT (1 mM) and BSA (0.03%).

For assay [1], the target named is T1, PKR WT (Homo sapiens, UniProt P30613). The assay can be described thus: PKR WT enzymatic assay AC50. It counts as biochemical. Particulars: wild type PKR. The method, then:
as §1, §2
as §3, with “wt” for “R532W”, “(0.48” for “(0.36”, “(0.15” for “(0.1”

Assay [2] addresses T1, PKR WT. The assay can be described thus: PKR WT cell based assay AC50. Particulars: wild type PKR.

PKR R532W, sequence (P30613 whole entry R532W): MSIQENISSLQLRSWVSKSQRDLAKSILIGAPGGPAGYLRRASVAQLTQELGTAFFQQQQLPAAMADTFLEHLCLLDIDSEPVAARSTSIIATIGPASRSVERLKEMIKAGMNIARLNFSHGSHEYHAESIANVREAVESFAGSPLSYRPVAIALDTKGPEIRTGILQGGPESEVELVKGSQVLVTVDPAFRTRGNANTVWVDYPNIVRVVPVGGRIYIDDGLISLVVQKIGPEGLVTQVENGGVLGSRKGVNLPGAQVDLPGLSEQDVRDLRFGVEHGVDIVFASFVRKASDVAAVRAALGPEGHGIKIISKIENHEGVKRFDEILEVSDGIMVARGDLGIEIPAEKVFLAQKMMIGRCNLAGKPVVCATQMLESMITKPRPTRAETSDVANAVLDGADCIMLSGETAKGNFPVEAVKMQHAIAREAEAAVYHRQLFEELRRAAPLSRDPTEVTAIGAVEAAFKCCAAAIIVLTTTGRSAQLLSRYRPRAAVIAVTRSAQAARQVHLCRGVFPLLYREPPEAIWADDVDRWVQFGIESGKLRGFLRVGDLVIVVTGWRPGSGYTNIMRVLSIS
PKR R510Q, sequence (P30613 whole entry R510Q): as the sequence (P30613 whole entry R532W) above, with R510Q, W532R counted along it
T1 sequence (P30613 whole entry): as the sequence (P30613 whole entry R532W) above, with W532R counted along it

`Cc1ncccc1C1(O)CN(C(=O)c2ccc(NS(=O)(=O)c3cccc4cccnc34)cc2)C1` [Compound 19, N-(4-(3-hydroxy-3-(2-methylpyridin-3-yl)azetidine-1-carbonyl)phenyl)quinoline-8-sulfonamide]: the AC50 on PKR R510Q is 0.101 to 1 µM; on PKR R532W it was less than 100 nM; on PKR WT [1] it was 101 to 1000 nM; at PKR WT [2], 101 to 1000 nM.
`O=C(c1ccc(NS(=O)(=O)c2cccc3cccnc23)cc1)N1CC(O)(c2cccc(F)c2)C1` [Compound 4, N-(4-(3-(3-fluorophenyl)-3-hydroxyazetidine-1-carbonyl)phenyl)quinoline-8-sulfonamide]: the AC50 at PKR R510Q is 1.01 to 10 µM; at PKR R532W, 101 to 1000 nM; at PKR WT [1], 101 to 1000 nM; on PKR WT [2], less than 100 nM.
As for `CCc1ccccc1C1(O)CN(C(=O)c2ccc(NS(=O)(=O)c3cccc4cccnc34)cc2)C1` [Compound 13, N-(4-(3-(2-ethylphenyl)-3-hydroxyazetidine-1-carbonyl)phenyl)quinoline-8-sulfonamide], the values for the AC50 on PKR R510Q, on PKR WT [1] and on PKR WT [2] were 0.101 to 1 µM, less than 100 nM and less than 100 nM, respectively.
With `O=C(c1ccc(NS(=O)(=O)c2cccc3cccnc23)cc1)N1CC(O)(c2cccnc2C(F)(F)F)C1` [Compound 17, N-(4-(3-hydroxy-3-(2-(trifluoromethyl)pyridin-3-yl)azetidine-1-carbonyl)phenyl)quinoline-8-sulfonamide], the AC50 was 0.101 to 1 µM at PKR R510Q, less than 100 nM on PKR WT [1] and 101 to 1000 nM on PKR WT [2].
Regarding `CC(C)(C)C1(O)CN(C(=O)c2ccc(NS(=O)(=O)c3cccc4cccnc34)cc2)C1` [Compound 31, N-(4-(3-(tert-butyl)-3-hydroxyazetidine-1-carbonyl)phenyl)quinoline-8-sulfonamide], the values for the AC50 at PKR R510Q, at PKR R532W and at PKR WT [1] were greater than 10 µM, 1010 to 10000 nM and 1010 to 10000 nM, respectively.
With `O=C(c1ccc(NS(=O)(=O)c2cccc3ncccc23)cc1)N1CC(O)(c2cccc(C(F)(F)F)c2)C1` [Compound 44, N-(4-(3-hydroxy-3-(3-(trifluoromethyl)phenyl)azetidine-1-carbonyl)phenyl)quinoline-5-sulfonamide], the half-maximal activity concentration (AC50) at PKR R510Q fell in the range of 1.01 to 10 µM; at PKR R532W, 1010 to 10000 nM; on PKR WT [1], 1010 to 10000 nM.
`CC(O)C1(O)CN(C(=O)c2ccc(NS(=O)(=O)c3cccc4cccnc34)cc2)C1` (centres unmarked) [Compound 39, N-(4-(3-hydroxy-3-(1-hydroxyethyl)azetidine-1-carbonyl)phenyl)quinoline-8-sulfonamide]: the half-maximal activity concentration (AC50) was greater than 10 µM at PKR R510Q, greater than 10000 nM at PKR R532W and greater than 10000 nM at PKR WT [1].
As for `O=C(c1ccc(NS(=O)(=O)c2cccc3cccnc23)cc1)N1CC(O)(CCCO)C1` [Compound 40, N-(4-(3-hydroxy-3-(3-hydroxypropyl)azetidine-1-carbonyl)phenyl)quinoline-8-sulfonamide], the AC50 on PKR R510Q was greater than 10 µM; on PKR R532W, 1010 to 10000 nM; on PKR WT [1], 1010 to 10000 nM.
Consider `CCC1(O)CN(C(=O)c2ccc(NS(=O)(=O)c3cccc4cccnc34)cc2)C1` [Compound 34, N-(4-(3-ethyl-3-hydroxyazetidine-1-carbonyl)phenyl)quinoline-8-sulfonamide], for which the concentration at half-maximal activity (AC50) is greater than 10 µM on PKR R510Q, 1010 to 10000 nM on PKR R532W and 1010 to 10000 nM on PKR WT [1].
Turning to `O=C(c1ccc(NS(=O)(=O)c2ccccc2C(F)(F)F)cc1)N1CC(O)(Cc2ccccc2)C1` [Compound 51, N-(4-(3-benzyl-3-hydroxyazetidine-1-carbonyl)phenyl)-2-(trifluoromethyl)benzenesulfonamide], the AC50 at PKR R510Q is greater than 10 µM; on PKR R532W, greater than 10000 nM; at PKR WT [1], greater than 10000 nM.
Regarding `O=C(c1ccc(NS(=O)(=O)c2ccc(F)cc2F)cc1)N1CC(O)(c2cccc(C(F)(F)F)c2)C1` [Compound 42, 2,4-difluoro-N-(4-(3-hydroxy-3-(3-(trifluoromethyl)phenyl)azetidine-1-carbonyl)phenyl)benzenesulfonamide], the concentration at half-maximal activity (AC50) at PKR R510Q is greater than 10 µM; on PKR R532W, greater than 10000 nM; at PKR WT [1], greater than 10000 nM.
With `Cn1c(=O)oc2cc(S(=O)(=O)Nc3ccc(C(=O)N4CC(O)(Cc5ccccc5)C4)cc3)ccc21` [Compound 70], the AC50 on PKR R510Q was greater than 10 µM; at PKR R532W it was greater than 10000 nM; at PKR WT [1], greater than 10000 nM.
With `O=C(c1ccc(NS(=O)(=O)c2cccc3cccnc23)cc1F)N1CC(O)(Cc2ccccc2)C1` [Compound 45, N-(4-(3-benzyl-3-hydroxyazetidine-1-carbonyl)-3-fluorophenyl)quinoline-8-sulfonamide], the AC50 was 1.01 to 10 µM on PKR R510Q, 101 to 1000 nM at PKR R532W and 101 to 1000 nM at PKR WT [1].
On to `CCCC1(O)CN(C(=O)c2ccc(NS(=O)(=O)c3cccc4cccnc34)cc2)C1` [Compound 36, N-(4-(3-hydroxy-3-propylazetidine-1-carbonyl)phenyl)quinoline-8-sulfonamide], for which the AC50 on PKR R510Q was greater than 10 µM; on PKR R532W, 1010 to 10000 nM; on PKR WT [1] it was 101 to 1000 nM.
Regarding `O=C(c1ccc(NS(=O)(=O)c2cccc3cccnc23)cc1)N1CC(O)(CC2CC2)C1` [Compound 37, N-(4-(3-(cyclopropylmethyl)-3-hydroxyazetidine-1-carbonyl)phenyl)quinoline-8-sulfonamide], the concentration at half-maximal activity (AC50) on PKR R510Q was greater than 10 µM; at PKR R532W it was 101 to 1000 nM; on PKR WT [1], 101 to 1000 nM.
With `Cc1cccc(CC2(O)CN(C(=O)c3ccc(NS(=O)(=O)c4cccc5cccnc45)cc3)C2)n1` [Compound 56, N-(4-(3-hydroxy-3-((6-methylpyridin-2-yl)methyl)azetidine-1-carbonyl)phenyl)quinoline-8-sulfonamide], the figures for the half-maximal activity concentration (AC50) at PKR R510Q, on PKR R532W and on PKR WT [1] were greater than 10 µM, 101 to 1000 nM and 1010 to 10000 nM, respectively.
As to `O=C(c1ccc(NS(=O)(=O)c2ccccc2Cl)cc1)N1CC(O)(Cc2ccccc2)C1` [Compound 49, N-(4-(3-benzyl-3-hydroxyazetidine-1-carbonyl)phenyl)-2-chlorobenzenesulfonamide], the half-maximal activity concentration (AC50) on PKR R510Q was greater than 10 µM; on PKR R532W it was 1010 to 10000 nM; on PKR WT [1], 1010 to 10000 nM.
With `O=C(c1ccc(NS(=O)(=O)c2cccc3cccnc23)cc1)N1CC(O)(c2ncccc2F)C1` [Compound 22, N-(4-(3-(3-fluoropyridin-2-yl)-3-hydroxyazetidine-1-carbonyl)phenyl)quinoline-8-sulfonamide], the concentration at half-maximal activity (AC50) at PKR R510Q fell in the range of 1.01 to 10 µM; on PKR R532W, 101 to 1000 nM; at PKR WT [1] it was 101 to 1000 nM.
In the case of `O=C(c1ccc(NS(=O)(=O)c2cccc3cccnc23)cc1)N1CC(O)(c2cccnc2F)C1` [Compound 18, N-(4-(3-(2-fluoropyridin-3-yl)-3-hydroxyazetidine-1-carbonyl)phenyl)quinoline-8-sulfonamide], the AC50 on PKR R510Q was in the range of 1.01 to 10 µM; on PKR R532W, 101 to 1000 nM; on PKR WT [1], 101 to 1000 nM.
In the case of `O=C(c1ccc(NS(=O)(=O)c2cccc3cnccc23)cc1)N1CC(O)(c2cccc(C(F)(F)F)c2)C1` [Compound 43, N-(4-(3-hydroxy-3-(3-(trifluoromethyl)phenyl)azetidine-1-carbonyl)phenyl)isoquinoline-5-sulfonamide], the values for the AC50 on PKR R510Q, on PKR R532W and at PKR WT [1] were greater than 10 µM, 1010 to 10000 nM and 1010 to 10000 nM, respectively.
